“And” between values parts separate entries of the source, which are not always exact repeats. Equal entries are not always repeated. Each block holds one compound with its values, some of them ahead of it. Where a SMILES comes first, the peptide text is derived from it.
Experiments:
[1] = Model of the blood brain barrier; assay type: in vitro ADME
Source text: In P1, Xaa1 is most preferably Asp, Xaa2 is most preferably Ala, and Xaa3 is most preferably Lys (see above). Thus, the preferred sequences of P1 are Asp Ala His and Asp Ala His Lys [SEQ ID NO: 1]. Most preferably the sequence of P1 is Asp Ala His Lys [SEQ ID NO: 1]. Asp Ala His is the minimum sequence of the N-terminal metal-binding site of human serum albumin necessary for the high-affinity binding of Cu(lI) and Ni(II), and Lys has been reported to contribute to the binding of these metal ions to this site. […] Other preferred sequences for P, include Thr Leu His (the N-terminal sequence of human a-fetoprotein), Arg Thr His (the N-terminal sequence of human sperm protamin HP2) and HMS HMS His (a synthetic peptide reported to form extremely stable complexes with copper; see Mlynarz et al., Speciation 98: Abstracts, Apr. 21, 1998, http://www.jate.uszeged.hu/spec98/abstr/mlynar.html).

[2] = biological target: T1, activated protein C (APC) (Homo sapiens, UniProt P04070); assay: APC activity assay (Accucolor assay, modified for aqueous environment); assay type: biochemical
T1 construct: purchased Sigma (St. Louis, Mo.) P2200
Experimental: Materials. The human albumin N-terminus analogue, d-DAHK, was synthesized by Bowman Research, Ltd (Newport, Wales, U.K.). The assay for APC anticoagulant activity was the Accucolor™ calorimetric assay (Sigma Diagnostics, St. Louis, Mo.). […] Copper content of APC was determined by graphite furnace atomic absorption (Galbraith Laboratories, Knoxville, Tenn.).
APC activity assay. The APC assay, originally designed for plasma samples (Francis et al., Am. J. Clin. Pathol. 87, 619-625 (1987)) was modified for use in a clean, aqueous environment. […] Experiments were performed in a 96-well plate. […] Protein C substrate (2 mg/L) was then added to each well and incubated for ten minutes at 37° C. Concentrated acetic acid was added to each well to stop the reaction and the results were read at 410 nm on a microplate fluorescence reader (Model FL600, Bio-Tek Instruments, Inc., Winooski, Vt.).

T1 sequence (P04070 212-461 limits assumed): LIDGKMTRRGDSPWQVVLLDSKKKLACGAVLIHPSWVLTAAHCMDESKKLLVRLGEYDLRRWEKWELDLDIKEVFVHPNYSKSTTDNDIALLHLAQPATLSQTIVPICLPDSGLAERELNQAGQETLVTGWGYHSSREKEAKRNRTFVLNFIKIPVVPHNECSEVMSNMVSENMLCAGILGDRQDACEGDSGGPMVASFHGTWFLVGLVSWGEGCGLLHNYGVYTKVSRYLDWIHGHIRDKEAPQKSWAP
T1 sequence (P04070 43-197 limits assumed): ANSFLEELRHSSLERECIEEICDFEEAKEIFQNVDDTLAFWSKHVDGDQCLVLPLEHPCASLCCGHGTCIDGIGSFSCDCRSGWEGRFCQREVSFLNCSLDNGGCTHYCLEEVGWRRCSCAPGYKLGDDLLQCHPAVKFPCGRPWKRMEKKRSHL

Compound: C[C@H](NC(=O)[C@@H](N)CC(=O)O)C(=O)N[C@@H](Cc1c[nH]cn1)C(=O)N[C@@H](CCCCN)C(=O)O [Asp Ala His Lys] (H-DAHK-OH; N-terminus and C-terminus assumed)
passage through a model of the blood brain barrier [1]: pass through a model of the blood brain barrier

overall mean decrease in APC activity compared to baseline ([2]; 10 μM CuCl2, mean of two separate experiments): 26.0%±11.8
decrease in APC activity compared to baseline ([2]; 10 μM CuCl2 with APC 2 mg/L, 30 min 37° C., single experiment, mean±SD, n=3): 27.9%±15.5 and 24.1%±9.7
Compound: [Cl][Cu][Cl] [CuCl2, reference compound]

increase over baseline APC activity, chelator alone ([2]; 40 μM chelator with APC 2 mg/L, no added copper, 30 min 37° C., mean±SD): 18.2%±13.0
protection of copper-induced inhibition of APC, lower d-DAHK:CuCl2 ratios ([2]; d-DAHK:CuCl2 ratios below 2:1 (1:4, 1:2, 1:1)): no significant protection
increase of APC activity over baseline, d-DAHK:CuCl2 2:1 ([2]; ratio 2:1 d-DAHK:CuCl2, 30 min 37° C.): 12.9%±1.1
increase of APC activity over baseline, d-DAHK:CuCl2 4:1 ([2]; ratio 4:1 d-DAHK:CuCl2, 30 min 37° C.): 14.8%±12.7
Compound: D-Asp D-Ala D-His D-Lys [d-DAHK]

Source: US20030055003A1, “Use of copper chelators to inhibit the inactivation of protein C” (priority 2001, published 2003)
